Calls of active or inactive are those of the source.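 The calls were made as follows: active = EC50 no more than a set limit of log units above the highest dose; inactive = the rest.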
target: S. pyogenes SKKanGAS, kanamycin survival, BacTiterGlo, 6 h; test: SKKanGAS survival reduction under kanamycin, dose response, streptokinase promoter inhibitor project, SKKanGAS strain, luminescence, dose confirmation (AID 1902);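 also: lower survival reflects blocked streptokinase promoter driving kanamycin resistance gene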

Going from `CC(C)c1ccc(OCC(=O)NNC(=S)NC(=O)c2ccco2)c(Br)c1` to `O=C(NC(=S)NNC(=O)c1ccccc1O)c1ccco1`, the EC50 rises from < 0.06 µM to 3.06 µM. The first is the more potent here.

`CCCc1nnc(NC(=O)c2c(O)c3cccc4c3n(c2=O)CCC4)s1` and `Cc1ccc(CN2CC(C(=O)Nc3nnc(SCc4c(Cl)cccc4Cl)s3)CC2=O)cc1` (stereo not drawn) are within 1.5-fold of each other in EC50: 6.91 µM for the first, 4.87 µM for the second.

`CC(=O)Nc1ccc(NC(=O)CSc2nnc(NC(=O)c3ccc(Br)o3)s2)cc1` and `O=C(NC(=S)NNC(=O)c1ccccc1[N+](=O)[O-])c1ccc(Br)cc1` are within 1.5-fold of each other in EC50: 2.68 µM for the first, 2.24 µM for the second.

Compared with `O=c1c2cc(N3CCOCC3)ccc2[nH]c(=S)n1CCc1ccccc1`, `COc1ccc(C(CNC(=O)c2cccc(S(=O)(=O)Nc3ccccc3Cl)c2)N2CCOCC2)cc1` (stereo not drawn) is 23-fold higher in EC50: 0.482 µM for the first, 11.1 µM for the second. The first is the more potent here.

Compared with `Cc1ccccc1-c1cc2nc(-c3ccc([N+](=O)[O-])cc3)cc(=O)n2[nH]1`, `Cc1cc([N+](=O)[O-])cc(/C=N/n2c(C)nc3ccccc3c2=O)c1O` is 2.9-fold lower in EC50: 11.9 µM for the first, 4.07 µM for the second. The second is the more potent here.

First: C=C(C)COc1ccc(-c2nc(N)ncc2Oc2ccc(OC)cc2)c(O)c1
Second: COc1ccc(OCCn2c(NC(=O)c3ccco3)nc3ccccc32)cc1
The EC50 of the first is 1.9-fold higher: 6.59 µM for the first, 3.38 µM for the second.

`CC(C)=CCc1cc([C@@H]2CC(=O)c3ccc(O)c(CC=C(C)C)c3O2)ccc1O` and `CC(=O)NS(=O)(=O)c1ccc(N=c2ssc3c2-c2ccc(C)cc2NC3(C)C)cc1` are within 1.5-fold of each other in EC50: 3.63 µM for the first, 2.92 µM for the second.

`C=CCn1c(COc2ccccc2)nnc1SCC(=O)N/N=C/c1cc(Cl)ccc1O` and `O=C(N/N=C/c1cc(Cl)cc([N+](=O)[O-])c1O)C(O)(c1ccccc1)c1ccccc1` are within 1.5-fold of each other in EC50: 3.32 µM for the first, 3.38 µM for the second.

Compared with `O=C(Nc1nc2ccc(F)cc2s1)c1ccccn1`, `O=[N+]([O-])c1cc(Cl)cc(/C=N/Nc2nc3ccccc3s2)c1O` is 2.2-fold higher in EC50: 0.694 µM for the first, 1.54 µM for the second.

Going from `CC1CCC(C(=O)c2c(O)c3ccccc3oc2=O)CC1` (stereo not drawn) to `Cc1ccc2sc(NNC(=O)c3cc(=O)c4ccccc4o3)nc2c1C`, the EC50 falls from 5.13 µM to 1.18 µM (4.3-fold).

First: CCOC(=O)c1cnn(-c2nc(-c3ccccc3)cs2)c1C(F)(F)F
Second: CCOC(=O)/C(=N/Nc1ccccc1)c1csc(Nc2ccccc2)n1
The EC50 of the first is 1.6-fold higher: 5.29 µM for the first, 3.22 µM for the second.

`CCn1c(=O)n(CC)c2cc(N3CCCC3)c(NC(=O)c3cc(Br)ccc3OC)cc21` and `O=C(COc1c(Cl)cccc1Cl)Nc1ccccc1N1CCCC1` are within 1.5-fold of each other in EC50: 4.28 µM for the first, 6.24 µM for the second.

Compared with `Cc1cccc(OCC(=O)NCC(=O)N/N=C/c2cc(Br)cc(Br)c2O)c1`, `O=C(COc1cccc(Cl)c1)Nc1ccccc1N1CCCCC1` is 7.3-fold higher in EC50: 0.723 µM for the first, 5.29 µM for the second.

First: O=C(CCN1C(=O)/C(=C/c2ccccc2Cl)SC1=S)NNC(=O)c1ccccc1O
Second: Cc1ccc(C(=O)NC(=S)NNC(=O)c2ccccc2O)cc1
The EC50 of the first is 7.3-fold higher: 3.35 µM for the first, 0.459 µM for the second. The second is the more potent here.

First: O=S(=O)(N[C@H]1C[C@@H](NS(=O)(=O)OCC(Cl)(Cl)Cl)C2CCCCC21)OCC(Cl)(Cl)Cl (stereo partly drawn)
Second: Nc1nc(NCCOCCO)nc(N2CCCCCC2)c1[N+](=O)[O-]
The EC50 of the first is 3.1-fold lower: 1.86 µM for the first, 5.78 µM for the second. The first is the more potent here.

`COc1cc(OC)c(NC(=O)c2sc3ncn(CC(=O)N4CCN(c5ccccn5)CC4)c(=O)c3c2C)cc1Cl` and `O=C(c1cc(-c2ccc(Br)cc2)nc2ccccc12)N1CCN(c2ccccc2O)CC1` are within 1.5-fold of each other in EC50: 6.52 µM for the first, 6.44 µM for the second.

Compared with `CCOC(=O)C1=NN(C(=O)c2ccc(C)cc2)C(O)(c2ccc(Cl)cc2)C1` (stereo not drawn), `CCOC(=O)c1c(NC(=O)c2cccs2)sc2c1CCN(C(=O)OCC)C2` is 4.2-fold higher in EC50: 3.06 µM for the first, 13 µM for the second. The first is the more potent here.

`CC1C/C(=N\NC(=S)NCc2ccccc2)CC(C)(C)C1` (stereo not drawn) and `CC[C@@H]1CC=C[C@H]2[C@H]1C(=O)N(Cc1ccccc1)[C@H]2c1ccc(OC)c(Cl)c1` are within 1.5-fold of each other in EC50: 3.96 µM for the first, 4.15 µM for the second.

Compared with `Cc1cccc(C)c1OC(=O)C(c1ccccc1)c1ccccc1`, `O=C(O)c1cccc2c(-c3ccccc3)c(-c3ccccc3)[nH]c12` is 2.7-fold higher in EC50: 3.17 µM for the first, 8.51 µM for the second.

Going from `Nc1nonc1-n1nnc(C(=O)N/N=C/c2cc(Cl)ccc2O)c1CN1CCCCCC1` to `CC1CCN(Cc2c(C(=O)N/N=C/c3cc(Cl)ccc3O)nnn2-c2nonc2N)CC1`, the EC50 falls from 5.76 µM to 2.67 µM (2.2-fold).

First: CC(=O)C(=Nc1ccc(Cl)cc1Cl)NNc1cccc(Cl)c1
Second: O=c1c2c(nc3c(-c4ccc(Cl)cc4)c[nH]n13)CCC2
The EC50 of the first is 1.5-fold higher: 5.07 µM for the first, 3.38 µM for the second.

Compared with `O=[N+]([O-])c1ccc(Nc2nc(NCCO)nc(N3CCCC3)n2)cc1`, `COc1ccc([N+](=O)[O-])cc1NC(=S)NC(NC(=O)C(c1ccccc1)c1ccccc1)C(Cl)(Cl)Cl` (stereo not drawn) is 2-fold higher in EC50: 5.91 µM for the first, 12 µM for the second. The first is the more potent here.

Compared with `CCCCn1c(O)c(N=NC(=O)c2ccccc2NS(=O)(=O)c2cccs2)c2ccccc21`, `COc1cccc(/C=C/c2ccc3cccc(O)c3n2)c1OC` is 5.7-fold lower in EC50: 5.06 µM for the first, 0.887 µM for the second.

Compared with `Cc1ccc(N2C(=O)C3CC(c4ccccc4)=C4C5C=CC(C6C(=O)N(c7ccc(C)cc7)C(=O)C56)C4C3C2=O)cc1` (stereo not drawn), `CC(C)Nc1nc(NC(C)C)nc(N(C)N)n1` is 2.2-fold higher in EC50: 1.39 µM for the first, 3.07 µM for the second. The first is the more potent here.

For `CC(C)c1ccc(NC(=O)NC(C)c2ccc3c(c2)OCO3)cc1` (stereo not drawn), the EC50 was > 15 µM (inactive).
`COc1ccc(S(=O)(=O)NCC2CCCN(Cc3ccc(OC)cc3F)C2)cc1` (stereo not drawn) was tested, and the EC50 was > 15 µM (inactive).
For `COCCn1c(SCC(=O)Nc2ccc(F)cc2)nc2c([nH]c3ccccc32)c1=O`, the EC50 was > 15 µM (inactive).
In the case of `CCN(CC)c1ccc(C=N/C(C#N)=C(\N)C#N)cc1`, the EC50 is reported as > 15 µM (inactive).
For `O=C(CSc1nnc(CNC(=O)c2ccc(F)cc2)o1)NCc1ccccc1Cl`, the EC50 was > 15 µM (inactive).

Reference: PubChem BioAssay AID1902 (Broad Institute, 2009)
